This note sets out measurements from US20260207563A1, “UREA COMPOUNDS AS ACTIVATORS OF POTASSIUM CHANNELS KV7.2/7.3 USEFUL IN THE TREATMENT OF CNS AND PNS DISORDERS” (ANGELINI PHARMA S.P.A., priority 2022, published 2026).

What all share (assay type): cell-based
For test [1], the target named is T1, heteromeric KV7.2/KV7.3 channels (KCNQ2, KCNQ3) (Homo sapiens, UniProt O43525+O43526).
T1 construct: expressed in transfected cells; host or cells: CHO-K1
Nature of the test: Automated patch-clamp (Sophion Qube 384) potency assay against KV7.2/KV7.3 channels. The following applies: CHO-K1/Kv7.2/Kv7.3 cells; for EC50: EC50 from concentration-response of shift in Vhalf, 10 concentrations up to 30 μM, read-out: Kv7.2/7.3 EC50; for Kv7.2/7.3 ΔV1/2: maximal shift in the Vhalf from the top of the curve. The method, boiled down: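 Whole-cell automated patch clamp on CHO-K1 cells stably expressing human KV7.2/KV7.3, held at −80 mV; I-V steps −100 to +20 mV (1 s) with 0 mV tail pulses, Boltzmann-fitted activation curves. Ten concentrations (1:3 from 30 μM, quadruplicate) versus 0.3% DMSO control; EC50 and maximal shift from 4-parameter fits of Vhalf shift.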
(In general: Patch clamp records ionic current or voltage across a cell membrane.)

Test [2] has as its target T2, homomeric KV7.4 channel (KCNQ4) (Homo sapiens, UniProt P56696).
T2 construct: host or cells: CHO-K1
Description: Automated patch-clamp (Qube) counter-screening assay against KV7.4 channel. Conditions: CHO-K1 cells expressing KV7.4; class by maximal shift in the Vhalf at 30 μM. The method, boiled down:
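CHO-K1 cells stably expressing homomeric human KV7.4 were recorded on the Qube automated patch clamp. Ten concentrations (1:3 dilutions from 30 μM) were tested in quadruplicate. The mean Vhalf shift was fitted with a 4-parameter logistic to give EC50 and maximal Vhalf shift, and selectivity was based on the shift at 30 μM.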

The target in test [3] is T3, heteromeric KV7.3/KV7.5 channel (KCNQ3, KCNQ5) (Homo sapiens, UniProt O43525+Q9NR82).
T3 construct: host or cells: HEK293
Nature of the test: Automated patch-clamp counter-screening against KV7.3/KV7.5 channel. Conditions: HEK293 cells expressing Kv7.3/KV7.5; class by maximal shift in the Vhalf at 30 μM. The method, boiled down: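 HEK293 cells with constitutive Kv7.3 and tetracycline-inducible Kv7.5 were recorded by automated patch clamp. Ten concentrations (1:3 series from 30 μM, quadruplicate) were tested; Vhalf shifts were fitted with a 4-parameter logistic to give EC50 and maximal Vhalf shift, with selectivity based on the shift at 30 μM.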

Consider `O=C(NCc1ccnc(OCC(F)(F)F)c1)NCc1cc(F)ccc1Cl` [Compound 85, 1-(2-Chloro-5-fluorobenzyl)-3-((2-(2,2,2-trifluoroethoxy)pyridin-4-yl)methyl)urea], for which, in test [1], the EC50 worked out at 206 nM and the “Kv7.2/7.3 ΔV1/2” value is given as 20.49 mV. Further, the Kv7.4 selectivity criteria result in test [2] was “A (Selective compounds showed Kv7.4 and/or Kv7.3/7.5 ΔV1/2 equal to or lower than 15 mV (letter A in table 3))”. In test [3], the Kv7.3/7.5 selectivity criteria result is “A (Selective compounds showed Kv7.4 and/or Kv7.3/7.5 ΔV1/2 equal to or lower than 15 mV (letter A in table 3))”.
Regarding `O=C(NCc1ccnc(OCC(F)(F)F)c1)N[C@@H]1CCc2ccc(F)cc21` [Compound 86, (R)-1-(6-fluoro-2,3-dihydro-1H-inden-1-yl)-3-((2-(2,2,2-trifluoroethoxy)pyridin-4-yl)methyl)urea], in test [1], the EC50 turned out to be 1350 nM and the “Kv7.2/7.3 ΔV1/2” value is 38.89 mV. In test [2], the Kv7.4 selectivity criteria result is listed as “A (Selective compounds showed Kv7.4 and/or Kv7.3/7.5 ΔV1/2 equal to or lower than 15 mV (letter A in table 3))”. The Kv7.3/7.5 selectivity criteria entry in test [3] is reported as “A (Selective compounds showed Kv7.4 and/or Kv7.3/7.5 ΔV1/2 equal to or lower than 15 mV (letter A in table 3))”.
Regarding `O=C(NCCC1(C(F)(F)F)CC1)NCc1cc(OCC(F)(F)F)ncc1F` [Compound 87, 1-((5-Fluoro-2-(2,2,2-trifluoroethoxy)pyridin-4-yl)methyl)-3-(2-(1-(trifluoromethyl)cyclopropyl)ethyl)urea], in test [1], the EC50 was 1850 nM and the “Kv7.2/7.3 ΔV1/2” value was 27.66 mV. Further, the Kv7.4 selectivity criteria result in test [2] is on record as “A (Selective compounds showed Kv7.4 and/or Kv7.3/7.5 ΔV1/2 equal to or lower than 15 mV (letter A in table 3))”. Besides, the Kv7.3/7.5 selectivity criteria result in test [3] is recorded as “A (Selective compounds showed Kv7.4 and/or Kv7.3/7.5 ΔV1/2 equal to or lower than 15 mV (letter A in table 3))”.
Turning to `O=C(NCc1ccnc(OCC(F)(F)F)c1)NCC1CCC(F)(F)C1` (stereo not drawn) [Compound 88, 1-((3,3-Difluorocyclopentyl)methyl)-3-((2-(2,2,2-trifluoroethoxy)pyridin-4-yl)methyl) urea], in test [1], the EC50 worked out at 960 nM and the “Kv7.2/7.3 ΔV1/2” value was 30.26 mV. In test [2], the Kv7.4 selectivity criteria result is on record as “A (Selective compounds showed Kv7.4 and/or Kv7.3/7.5 ΔV1/2 equal to or lower than 15 mV (letter A in table 3))”. For the same molecule, in test [3], the Kv7.3/7.5 selectivity criteria result is given as “B (Non-selective compounds showed Kv7.4 and/or Kv7.3/7.5 ΔV1/2 higher than 15 mV (letter B in table 3))”.
Taken in the same sequence, the figures for `O=C(NCc1ccnc(OCC(F)(F)F)c1)N[C@H]1CCc2ccc(F)cc21` [Compound 89] were 2180 nM, 18.85 mV, “B (Non-selective compounds showed Kv7.4 and/or Kv7.3/7.5 ΔV1/2 higher than 15 mV (letter B in table 3))” and “A (Selective compounds showed Kv7.4 and/or Kv7.3/7.5 ΔV1/2 equal to or lower than 15 mV (letter A in table 3))”.
Turning to `O=C(NCCC1(C(F)(F)F)CC1)NCc1ccnc(OCC(F)(F)F)c1F` [Compound 90], in test [1], the EC50 was determined as 237 nM and the “Kv7.2/7.3 ΔV1/2” value came to 20.86 mV. Besides, the Kv7.4 selectivity criteria result in test [2] is “A (Selective compounds showed Kv7.4 and/or Kv7.3/7.5 ΔV1/2 equal to or lower than 15 mV (letter A in table 3))”. Also, in test [3], the Kv7.3/7.5 selectivity criteria result is given as “A (Selective compounds showed Kv7.4 and/or Kv7.3/7.5 ΔV1/2 equal to or lower than 15 mV (letter A in table 3))”.
For the molecule `C[C@@H](Oc1cc(CNC(=O)NCCC2(C(F)(F)F)CC2)ncn1)C(F)(F)F` [Compound 91], in test [1], the EC50 came to 2290 nM and the “Kv7.2/7.3 ΔV1/2” value is on record as 37.24 mV. Further, the Kv7.4 selectivity criteria entry in test [2] was “A (Selective compounds showed Kv7.4 and/or Kv7.3/7.5 ΔV1/2 equal to or lower than 15 mV (letter A in table 3))”. The Kv7.3/7.5 selectivity criteria result in test [3] is reported as “B (Non-selective compounds showed Kv7.4 and/or Kv7.3/7.5 ΔV1/2 higher than 15 mV (letter B in table 3))”.
For `O=C(NCc1ccnc(C(F)(F)F)c1)N[C@@H]1CCc2ccc(F)cc21` [Compound 92], in test [1], the EC50 worked out at 3950 nM and the “Kv7.2/7.3 ΔV1/2” value worked out at 16.77 mV. The Kv7.4 selectivity criteria result in test [2] is “A (Selective compounds showed Kv7.4 and/or Kv7.3/7.5 ΔV1/2 equal to or lower than 15 mV (letter A in table 3))”. Also, in test [3], the Kv7.3/7.5 selectivity criteria result is reported as “A (Selective compounds showed Kv7.4 and/or Kv7.3/7.5 ΔV1/2 equal to or lower than 15 mV (letter A in table 3))”.
Consider `C[C@@H](Oc1nccc(CNC(=O)NCCC2(C(F)(F)F)CC2)n1)C(F)(F)F` [Compound 93], for which, in test [1], the EC50 was found to be 4460 nM and the “Kv7.2/7.3 ΔV1/2” value is recorded as 34.16 mV. The Kv7.4 selectivity criteria entry in test [2] is “B (Non-selective compounds showed Kv7.4 and/or Kv7.3/7.5 ΔV1/2 higher than 15 mV (letter B in table 3))”. For the same molecule, the Kv7.3/7.5 selectivity criteria entry in test [3] is given as “A (Selective compounds showed Kv7.4 and/or Kv7.3/7.5 ΔV1/2 equal to or lower than 15 mV (letter A in table 3))”.
For `O=C(NCc1ccnc(C(F)(F)F)c1)N[C@H]1CCc2ccc(F)cc21` [Compound 94], in that order: 4170 nM, 13.23 mV, “A (Selective compounds showed Kv7.4 and/or Kv7.3/7.5 ΔV1/2 equal to or lower than 15 mV (letter A in table 3))” and “A (Selective compounds showed Kv7.4 and/or Kv7.3/7.5 ΔV1/2 equal to or lower than 15 mV (letter A in table 3))”.
As to `O=C(NCCC1(C(F)(F)F)CC1)N1CCCC1c1ccnc(OCC(F)(F)F)c1` (stereo not drawn) [Compound 95], in test [1], the EC50 was 2290 nM and the “Kv7.2/7.3 ΔV1/2” value was 21.55 mV. In addition, the Kv7.4 selectivity criteria entry in test [2] is given as “A (Selective compounds showed Kv7.4 and/or Kv7.3/7.5 ΔV1/2 equal to or lower than 15 mV (letter A in table 3))”. Also, the Kv7.3/7.5 selectivity criteria result in test [3] is on record as “A (Selective compounds showed Kv7.4 and/or Kv7.3/7.5 ΔV1/2 equal to or lower than 15 mV (letter A in table 3))”.
Turning to `C[C@H](Oc1cc(CNC(=O)NCCC2(C(F)(F)F)CC2)ncn1)C(F)(F)F` [Compound 96], in test [1], the EC50 came out at 6610 nM and the “Kv7.2/7.3 ΔV1/2” value stood at 25.66 mV. For the same molecule, the Kv7.4 selectivity criteria entry in test [2] is “A (Selective compounds showed Kv7.4 and/or Kv7.3/7.5 ΔV1/2 equal to or lower than 15 mV (letter A in table 3))”. In test [3], the Kv7.3/7.5 selectivity criteria entry is reported as “A (Selective compounds showed Kv7.4 and/or Kv7.3/7.5 ΔV1/2 equal to or lower than 15 mV (letter A in table 3))”.
Turning to `C[C@H](NC(=O)NCCC1(C(F)(F)F)CC1)c1ccnc(C(F)(F)F)c1` [Compound 97], in test [1], the EC50 came out at 2300 nM and the “Kv7.2/7.3 ΔV1/2” value was found to be 26.87 mV. For the same molecule, the Kv7.4 selectivity criteria entry in test [2] is recorded as “B (Non-selective compounds showed Kv7.4 and/or Kv7.3/7.5 ΔV1/2 higher than 15 mV (letter B in table 3))”. For the same molecule, the Kv7.3/7.5 selectivity criteria result in test [3] is reported as “B (Non-selective compounds showed Kv7.4 and/or Kv7.3/7.5 ΔV1/2 higher than 15 mV (letter B in table 3))”.
Regarding `C[C@H](Oc1nccc(CNC(=O)NCCC2(C(F)(F)F)CC2)n1)C(F)(F)F` [Compound 98], in test [1], the EC50 worked out at 5140 nM and the “Kv7.2/7.3 ΔV1/2” value is listed as 22.14 mV. For the same molecule, in test [2], the Kv7.4 selectivity criteria entry is “A (Selective compounds showed Kv7.4 and/or Kv7.3/7.5 ΔV1/2 equal to or lower than 15 mV (letter A in table 3))”. Further, the Kv7.3/7.5 selectivity criteria entry in test [3] is listed as “A (Selective compounds showed Kv7.4 and/or Kv7.3/7.5 ΔV1/2 equal to or lower than 15 mV (letter A in table 3))”.
As for `O=C(N[C@@H](CO)c1ccnc(OCC(F)(F)F)c1)N[C@H]1CCc2ccc(F)cc21` [Compound 99], in test [1], the EC50 is 12800 nM and the “Kv7.2/7.3 ΔV1/2” value stood at 29.92 mV. Moreover, in test [2], the Kv7.4 selectivity criteria result was “B (Non-selective compounds showed Kv7.4 and/or Kv7.3/7.5 ΔV1/2 higher than 15 mV (letter B in table 3))”. Also, the Kv7.3/7.5 selectivity criteria result in test [3] was “B (Non-selective compounds showed Kv7.4 and/or Kv7.3/7.5 ΔV1/2 higher than 15 mV (letter B in table 3))”.
Consider `O=C(NCc1ccnc(C(F)(F)F)c1)NCC1CCCCC1` [Compound 100], for which, in test [1], the EC50 worked out at 3940 nM and the “Kv7.2/7.3 ΔV1/2” value is on record as 24.71 mV. In addition, the Kv7.4 selectivity criteria result in test [2] was “A (Selective compounds showed Kv7.4 and/or Kv7.3/7.5 ΔV1/2 equal to or lower than 15 mV (letter A in table 3))”. The Kv7.3/7.5 selectivity criteria entry in test [3] is listed as “B (Non-selective compounds showed Kv7.4 and/or Kv7.3/7.5 ΔV1/2 higher than 15 mV (letter B in table 3))”.
Taken in the same sequence, the figures for `O=C(N[C@@H](CO)c1ccnc(OCC(F)(F)F)c1)N[C@@H]1CCc2ccc(F)cc21` [Compound 101] were 2640 nM, 38.71 mV, “B (Non-selective compounds showed Kv7.4 and/or Kv7.3/7.5 ΔV1/2 higher than 15 mV (letter B in table 3))” and “B (Non-selective compounds showed Kv7.4 and/or Kv7.3/7.5 ΔV1/2 higher than 15 mV (letter B in table 3))”.
Consider `O=C(NCc1ccnc(C(F)(F)F)c1)Nc1cc(F)cc(Cl)c1` [Compound 102], for which, in test [1], the EC50 worked out at 3830 nM and the “Kv7.2/7.3 ΔV1/2” value is recorded as 35.23 mV. Besides, the Kv7.4 selectivity criteria entry in test [2] is given as “B (Non-selective compounds showed Kv7.4 and/or Kv7.3/7.5 ΔV1/2 higher than 15 mV (letter B in table 3))”. The Kv7.3/7.5 selectivity criteria entry in test [3] is “B (Non-selective compounds showed Kv7.4 and/or Kv7.3/7.5 ΔV1/2 higher than 15 mV (letter B in table 3))”.
